Values quoted from earlier work as cited in patent publication US20110053889A1, “Prenatal and postnatal screening and treatment of critical monosaccharide deficiencies for neurologic and immunologic function” (priority 2008, published 2011).
Like-named read-outs stand apart in the source and are kept apart here.

Key:
[1] = for Estimated Safe Daily Dose (mg) in 68 kg human: 68 kg human (Gardiner, 2004); for Estimated Safe Daily Dose: based on ADME and safety data and margin-of-safety (Gardiner, 2004)
[2] = patient with LAD II (Marquardt et al., 1999)
[3] = oral 50-100 mg/kg body weight, healthy volunteers (Marquardt et al., 1999)
[4] = oral 0.07-0.21 g/kg body weight, humans (Alton et al., 1997)
E. coli [5] = conditions: injected, rats (Michaels et al., 1983)
[6] = rats
[7] = oral single doses (Alton et al., 1997)
E. coli [8] = conditions: topical solution applied to maternal vaginas prior to delivery; control 77% (Cox and Taylor, 1990)
[9] = radiolabeled injection (Martin et al., 1998)
[10] = ingested (Martin et al., 1998)
[11] = oral 1 gram, humans (Talent and Gracy, 1996)

For `O=C[C@H](O)[C@@H](O)[C@@H](O)[C@H](O)CO` [Galactose, D-galactose], the “Estimated Safe Daily Dose (mg) in 68 kg human” value (shortened to “Estimated Safe Daily Dose (mg)”) [1] is listed as 50,000 mg and the “Estimated Safe Daily Dose” value [1] is listed as 735 mg/kg/day.
In the case of `C[C@H](O)[C@@H](O)[C@@H](O)[C@H](O)C=O` [Fucose, L-fucose], the “clinical outcome of oral supplementation” value [2] is given as “clinical disappearance of infections and fever”, the “Estimated Safe Daily Dose (mg)” value [1] is given as 34,000 mg and the “Estimated Safe Daily Dose” value [1] is given as 500 mg/kg/day. The clearance half-time [3] was 100 min and the “time to peak serum fucose concentration” value [3] was 1 h.
In the case of `CC(=O)N[C@H]1[C@H]([C@H](O)[C@H](O)CO)OC(O)(C(=O)O)C[C@@H]1O` (stereo partly shown) [Sialic Acid, N-acetylneuraminic acid], the “Estimated Safe Daily Dose (mg)” value [1] is listed as 140 mg and the “Estimated Safe Daily Dose” value [1] is listed as 2 mg/kg/day.
For `O=C[C@@H](O)[C@@H](O)[C@H](O)[C@H](O)CO` [Mannose, mannose], the clearance half-time [4] is listed as “about 4 hours”, the “time to peak blood mannose concentration” value [4] is listed as “approximately 90 minutes” and the “time to reduction of E. coli bacteriuria” value (E. coli [5]) is listed as at most 1 days. For the same molecule, the “increase of glycoprotein incorporation in organs” value ([6]; at 1-8 hours) was 2- to 6 fold, the “time to absorption into the serum” value ([6]; oral, radiolabeled) was at most 1 h and the “Estimated Safe Daily Dose (mg)” value [1] was 53,000 mg. For the same molecule, the “Estimated Safe Daily Dose” value [1] was 779 mg/kg/day, the “single dose that induces osmotic diarrhea” value [7] was over 200 mg/kg body wt and the “E. coli bacteremia in newborns” value (E. coli [8]) was 25%.
For `O=C[C@H](O)[C@@H](O)[C@H](O)[C@H](O)CO` [Glucose, D-glucose], the “Estimated Safe Daily Dose (mg)” value [1] is given as 150,000 mg and the “Estimated Safe Daily Dose” value [1] is given as 2,200 mg/kg/d.
For `N[C@H]1C(O)O[C@H](CO)[C@@H](O)[C@@H]1O` (stereo partly shown) [Glucosamine, glucosamine], the “protein-bound radioactivity in the form of sialic acid” value [9] is listed as 25-30% and the “fraction of the dose oxidized” value [10] is listed as “about one-half”.
For `CC(=O)N[C@H]1C(O)O[C@H](CO)[C@@H](O)[C@@H]1O` (stereo partly shown) [N-acetylglucosamine], the “time to significant rise in serum levels of GlcNAc” value [11] is given as at most 1 h, the “Estimated Safe Daily Dose (mg)” value [1] is given as 1,000 mg and the “Estimated Safe Daily Dose” value [1] is given as 15 mg/kg/day.
